Assay results as given in patent publication EP0652009A1, “Identification and use of protease inhibitors” (ELI LILLY AND COMPANY, priority 1993, dated 1995).

Biological target: Cathepsin D (Homo sapiens, UniProt P07339)
Assay: Assay 3: cathepsin D inhibition activity (non-cellular assay, chromogenic substrate)
Assay type: biochemical
Design: Frozen human placental tissue was thawed and homogenized; from tissue; host or cells: human placenta
Conditions: cathepsin D from human placental tissue; for Ki: chromogenic substrate, pH 3.7, 37°C
Method: A third non-cellular assay for determining in vitro aspartyl protease inhibitory activity is generally described in Jupp, R.A. et al., (1990) Biochem. J., 265:871-878 and Rao et al., J. Med. Chem. (1993), in press. The assay is carried out by incubating a test compound with a suitable aspartyl protease, such as cathepsin D, in the presence of a chromogenic substrate. The inhibition constant, Ki, value may then be determined by quantifying the competitive inhibition of the hydrolysis of the chromogenic substrate. A variety of chromogenic substrates that are useful for assaying aspartyl protease activity are discussed in Dunn, et al., (1986) Biochem. J., 237:899-906. A preferred chromogenic substrate for a cathepsin D assay is disclosed in Scarborough, P.E. et al., Protein Science, (1993), 2:264-276.
Concentrations of substrate solutions and cleavage products may be verified using amino acid analysis. The enzyme preparations may be titrated with a tightly binding inhibitor to quantitate the active concentration of the enzyme. Enzyme concentrations are typically in the range of from 1-6 nM. Stock solutions of the test compound are prepared at concentrations ranging from 1.0 to 5.0 mg/mL, and then 50-100 µL portions of these stock solutions may be further diluted to a concentration in the range of 5 to 300 µM for rate determinations.
[…] Then, the test compounds are assayed over a concentration range of, for example, 5 to 300 µM for rate determinations.
A decrease in absorbance in the range of 284-324 nm may be monitored using a spectrophotometer. Absorbance readings are typically taken at various timepoints. The initial velocities are then plotted versus the initial substrate concentration. […] Estimates of Ki may then be determined using the Dixon construction. Dixon, M., (1953) Biochem J., 55:170-171.
If the ratio of the total active enzyme concentration to the estimated Ki value ([E]t/Ki) is less than 0.2, then the precise Ki value may be computed by using a non-linear curve fitting program based on the equation: v= Vmax [S]/[S] + Km (1 + [I]/Ki ) [formula] where v is the initial rate, [S] is the initial substrate concentration, [I] is the inhibitor concentration and Km and Ki are defined above. […] P.J.F., (1972) Biochem J., 127:321-333. This Assay is exemplfied in Assay 3.
The homogenate was centrifuged at 10,000 rpm for 30 minutes in a Sorvall GSA rotor. The supernatant was adjusted to pH 3.7 using 5.7N HCl and then sodium acetate was added to a concentration of 0.1M. The resultant mixture was incubated for 30 minutes at 0°C, resulting in the formation of a precipitate. This precipitate was removed by centrifugation (30 minutes, 10,000 rpm). The acidic supernatent was applied to a chromatography column (pepstatinyl agarose equilibrated with 0.1M sodium acetate, pH 3.5, 0.1% Brij 35, and 1M NaCl), washed until the OD₂₈₀ of the effluent returned to baseline, and then eluted with 50mM Tris-HCl, pH 8.6, 0.1% Brij 35, and 1M NaCl. The eluent was dialyzed against 10mM sodium phosphate, pH 7.0, 0.1% Brij 35, and 0.1M NaCl, and then applied to a 1 mL DEAE-Sephacel column equilibrated with the same buffer. Cathepsin D was recovered in the breakthrough fraction.
The enzyme mixture (125 µL buffer (0.1M sodium formate at pH 3.7), 1 µL of a 1mM solution of test compound, 4 µL of DMSO, enzyme and water to provide a total volume of 230 µL) was vortexed and prewarmed for four minutes before the addition of the chromogenic substrate. After warming, the enzyme mixture was added to 20 µL of a […] dilution of substrate solution. A control reaction mixture was similarly prepared without the addition of the test compound. The percent of inhibition of the initial rate of reaction in the presence of a particular concentration of test compound (i.e. 4 µM) may be determined for the test compound by monitoring the reaction mixture in parallel to the control reaction. […]

Sequence of Cathepsin D (P07339 169-412 limits assumed): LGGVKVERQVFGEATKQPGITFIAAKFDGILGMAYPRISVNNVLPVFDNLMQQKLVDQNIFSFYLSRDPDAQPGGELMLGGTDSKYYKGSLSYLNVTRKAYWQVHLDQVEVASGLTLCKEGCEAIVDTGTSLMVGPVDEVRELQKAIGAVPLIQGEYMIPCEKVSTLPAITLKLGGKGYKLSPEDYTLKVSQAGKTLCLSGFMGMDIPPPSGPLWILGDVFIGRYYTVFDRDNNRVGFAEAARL
Sequence of Cathepsin D (P07339 65-162 limits assumed): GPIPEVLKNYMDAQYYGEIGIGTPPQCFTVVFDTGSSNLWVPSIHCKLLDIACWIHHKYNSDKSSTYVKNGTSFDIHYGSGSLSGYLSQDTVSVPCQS

% inhibition at 4µ M (4 µM test compound, inhibition of initial rate relative to control)	Compound	Ki
28%	Cc1ccc(C(=O)C2NCCc3ccccc32)cc1C(=O)N[C@@H](Cc1ccccc1)[C@H](O)CN1C[C@H]2CCCC[C@H]2C[C@H]1C(=O)NC(C)(C)C (relative stereo) [Example 30, [3S-(3R*,4aR*,8aR*,2'S*,3'R*)]-2-[2'-Hydroxy-3'-phenylmethyl-4'-aza-5'-oxo-5'-(3''-[1''',2''',3''',4'''-tetrahydroisoquinolin-1'''-ylcarbonyl]-6''-methyl)phenyl]pentyl-decahydroisoquinoline-3-N-t-butylcarboxamide]	
	Cc1cccc2ccc(C(=O)N[C@@H](CC(N)=O)C(=O)N[C@@H](Cc3ccccc3)[C@H](O)Cc3ccccc3C(=O)NC(C)(C)C)nc12 [Example 9, [1S-(1R*,4R*,5S*)]-N-(1-(2-Amino-2-oxoethyl)-2-oxo-3-aza-4-phenylmethyl-5-hydroxy-6-(2-(1-t-butylamino-1-oxomethyl)phenyl)hexyl)-8-methylquinolin-2-yl carboxamide]	0.82 µM
	CC(C)C(NC(=O)C(Cc1cccc2ccccc12)NC(=O)OC(C)(C)C)C(=O)NC(Cc1ccccc1)C(O)Cc1ccccc1C(=O)NC(C)(C)C (stereo not drawn) [Example 23, [2R-(2R*,3S*,6S*,9S*)]-N-t-Butyl-2-[2-hydroxy-3-phenylmethyl-4,7-diaza-5,8-dioxo-6-(1-methylethyl)-9-N(t-butoxycarbonyl)amino-10-naphth-1-yl]decyl benzamide]	0.073 µM
	CC(C)C(NC(=O)C(Cc1cccc2ccccc12)NC(=O)OC(C)(C)C)C(=O)NC(Cc1ccccc1)C(O)Cc1ccccc1C(=O)NC(C)(C)C (stereo not drawn) [Example 24, [2R-(2R*,3S*,6S*,9R*)]-N-t-Butyl-2-[2-hydroxy-3-phenylmethyl-4,7-diaza-5,8-dioxo-6-(1-methylethyl)-9-N(t-butoxycarbonyl)amino-10-naphth-1-yl]decyl benzamide]	0.042 µM
